# Publication PMC10688702, “The indole motif is essential for the antitrypanosomal activity of N^5-substituted paullones” (PLOS ONE, 2023)
# Columns and labels:
# [1] = tested on: L. infantum amastigotes (intracellular, in J774.A1 macrophages); assay: Viability assay for L. infantum amastigotes; assay type: cell-based; details: Leishmania infantum, J774.A1, 24 h, read-out: L. infantum amastigote viability [% at 20 μM]
# Summary of the method: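 Luciferase-expressing L. infantum metacyclic promastigotes (MHOM/MA/67/ITMAP263) infected J774.A1 murine macrophages at 1:10 for 24 h at 37 °C, 5% CO2. After compound treatment, a further 24 h incubation followed. Percent amastigote viability, in triplicate, was normalised to host-cell density by a propidium iodide correction factor.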
# [2] = target: trypanothione synthetase of L. infantum (LiTryS) (Leishmania infantum, UniProt A4I2Z3); assay: TryS activity screening assay on recombinant LiTryS; assay type: biochemical; details: for activity at 30 µM: read-out: LiTryS activity [% at 30 μM]; for IC50: recombinant TryS, errors 2 SD, read-out: LiTryS inhibition [IC50
# Chain of trypanothione synthetase of L. infantum (LiTryS) (A4I2Z3 entry or part of it): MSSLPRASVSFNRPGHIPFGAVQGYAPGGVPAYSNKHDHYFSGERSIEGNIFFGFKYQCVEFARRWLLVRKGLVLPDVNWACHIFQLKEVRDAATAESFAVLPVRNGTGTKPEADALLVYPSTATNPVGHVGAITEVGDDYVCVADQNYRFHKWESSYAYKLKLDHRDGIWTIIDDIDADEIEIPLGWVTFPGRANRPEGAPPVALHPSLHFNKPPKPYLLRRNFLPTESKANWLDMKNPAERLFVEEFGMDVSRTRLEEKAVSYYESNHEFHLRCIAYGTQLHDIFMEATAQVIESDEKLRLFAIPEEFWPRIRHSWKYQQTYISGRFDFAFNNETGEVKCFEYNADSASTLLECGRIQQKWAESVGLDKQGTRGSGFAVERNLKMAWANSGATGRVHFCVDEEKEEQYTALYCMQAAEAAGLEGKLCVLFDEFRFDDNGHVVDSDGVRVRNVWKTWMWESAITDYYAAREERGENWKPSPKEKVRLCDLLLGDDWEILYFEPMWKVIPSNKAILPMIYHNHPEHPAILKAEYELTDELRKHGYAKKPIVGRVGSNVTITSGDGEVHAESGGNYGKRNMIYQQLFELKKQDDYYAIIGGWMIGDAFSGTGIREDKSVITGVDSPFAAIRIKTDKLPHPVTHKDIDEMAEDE
# Summary of the method: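 N-His-tagged TryS from E. coli, purified by IMAC and SEC; end-point reaction with 150 μM ATP, 2 mM Spd, GSH 0.05 mM (TbTryS) or 0.25 mM (LiTryS), enzyme 3*10^−5 (TbTryS) or 2*10^−5 (LiTryS) μmol*min^-1*mL^-1. Stopped after 15 min with BIOMOL GREEN; A650 activity relative to blank-corrected DMSO control.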
# [3] = tested on: murine macrophages J774.A1; assay: Cytotoxicity assays on murine macrophages (WST-1); assay type: cell-based; details: error 1 SD
# Procedure: Cytotoxicity assays on murine macrophages. Murine macrophages from the cell line J774.A1 (ATCC® TIB-67TM) were cultivated under a humidified 5% CO2/95% air atmosphere at 37°C in Dulbecco’s modified Eagle’s medium (DMEM) supplemented with 10% (v/v) FBS, 10 U/mL penicillin and 10 μg/mL streptomycin. The experimental protocol for the determination of EC50 values was identical as described by Demoro et al. 2012 [71], with the following change: 200 μL/well of a cell suspension at 6 × 10^4 cells per mL was added in a 96-well culture plate and washed with 150 μL of DMEM. The cytotoxicity of the compounds was evaluated in triplicate using the WST-1 reagent (Roche). The control treatment included cells cultured in the presence of DMSO 1% (v/v). Absorbance at 450 nm (Ai 450 nm), corresponding to the formazan dye produced by metabolically active cells, was measured with an EL 800-microplate reader. The corrected absorbance values at 450 nm (Ai c 450 nm) were obtained by subtracting the corresponding absorbance value at 630 nm (Ai 630 nm) and the blank average (Ablank 450 nm): Aic450nm=Ai450nm-Ai630nm-Ablank450nm
# Cell viability (%), with the number of viable cells proportional to the absorbance, was calculated as follows: cellviability%=Aic450nm/Anegativecontrolc450nm*100%
# Ai c 450 nm refers to an absorbance obtained from cells treated with compound I at a specific concentration (i) and Anegative control c 450 nm refers to an absorbance obtained from cells in the DMSO-treated control (negative control). The errors were calculated using error propagations and are expressed as one SD, estimated as σ^n−1.
Structure (SMILES),viability at 20 µM [1],activity at 30 µM [2],IC50 [2],Macrophage toxicity [% at stated conc.] ([3]; % cell death at 60 μM),Macrophage toxicity [% at stated conc.] ([3]; % cell death at 50 μM)
"CNCCNC(=O)CN1C(=O)Cc2c([nH]c3ccc(I)cc23)-c2ccc(Cl)cc21 [1f, 2-(3-Chloro-9-iodo-6-oxo-7,12-dihydrobenzo[2,3]azepino[4,5-b]indol-5(6H)-yl)-N-[2-(methylamino)ethyl]acetamide]",72 ± 5%,2.2 ± 0.6%,70 ± 30 nM,105.8 ± 0.2%,–
"CNCCNC(=O)CN1C(=O)Cc2c([nH]c3ccc(Cl)cc23)-c2ccc(Cl)cc21 [1g, 2-(3,9-Dichloro-6-oxo-7,12-dihydrobenzo[2,3]azepino[4,5-b]indol-5(6H)-yl)-N-[2-(methylamino)ethyl]acetamide]",70 ± 2%,2.2%,390 ± 60 nM,–,101.9 ± 3.6%
"CNCCNC(=O)CN1C(=O)Cc2c([nH]c3ccc(C(F)(F)F)cc23)-c2ccc(Cl)cc21 [1h, 2-(3-Chloro-6-oxo-9-trifluoromethyl-7,12-dihydrobenzo[2,3]azepino[4,5-b]indol-5(6H)-yl)-N-[2-(methylamino)ethyl]acetamide]",93 ± 10%,0%,60 ± 40 nM,102.8 ± 0.4%,–
